Literature values as cited in patent publication US7550162B2, “Labiatae herb extracts and hop extracts for extending the color life and inhibiting the growth of microorganisms in fresh meat, fish and poultry” (Kalsec Incorporated, priority 2001, dated 2009).
Converted amounts (≈) assume the structure as drawn. Where two headings read alike, the source gives them in different places.

What was measured:
Gram-positive organisms = conditions: value also given in ppm
Gram positive organisms = conditions: in culture
Listeria = conditions: soy broth

Row | Structure (SMILES) | Minimum inhibitory concentration (Gram-positive organisms) [mg/L] | concentration inhibiting Listeria (Listeria) | other results
1 | CC(C)=CCC1=C(O)C(C(=O)CC(C)C)=C(O)C(CC=C(C)C)(CC=C(C)C)C1=O [Lupulone (beta acids), Lupulone] | 1 (≈ 2.41 µM) |  | MIC (Gram positive organisms): 1-10 ppm
2 | CC(C)=CCC1=C(O)C(C(=O)CC(C)C)=C(O)C1O (centres unmarked) [humulinic acid] | 250 (≈ 939 µM) |  | 
3 | CC(C)CCC1=C(O)C(C(=O)C(C)C)=C(O)C(CCC(C)C)(CCC(C)C)C1=O [hexahydrocolulupone, hexahydrocolupulone] |  | 0.4 ppm | 
4 | CC(C)=CCC(=O)C1(O)C(O)=C(C(=O)CC(C)C)C(=O)C1CC=C(C)C (centres unmarked) [isohumulone] | 25 (≈ 69 µM) |  | relative activity (beer spoilage organisms; pH 3.8): 226; relative activity (beer spoilage organisms; pH 4.6): 42
5 | CC(C)CCC(=O)C1(O)C(O)=C(C(=O)CC(C)C)C(=O)C1CCC(C)C (centres unmarked) [Tetrahydroisohumulone, tetrahydroisohumulone] |  | 6-18 ppm | 
